The target of assay [1] is T1, Histone-lysine N-methyltransferase EHMT1 (Homo sapiens) (UniProt Q9H9B1).
T1 sequence (whole entry): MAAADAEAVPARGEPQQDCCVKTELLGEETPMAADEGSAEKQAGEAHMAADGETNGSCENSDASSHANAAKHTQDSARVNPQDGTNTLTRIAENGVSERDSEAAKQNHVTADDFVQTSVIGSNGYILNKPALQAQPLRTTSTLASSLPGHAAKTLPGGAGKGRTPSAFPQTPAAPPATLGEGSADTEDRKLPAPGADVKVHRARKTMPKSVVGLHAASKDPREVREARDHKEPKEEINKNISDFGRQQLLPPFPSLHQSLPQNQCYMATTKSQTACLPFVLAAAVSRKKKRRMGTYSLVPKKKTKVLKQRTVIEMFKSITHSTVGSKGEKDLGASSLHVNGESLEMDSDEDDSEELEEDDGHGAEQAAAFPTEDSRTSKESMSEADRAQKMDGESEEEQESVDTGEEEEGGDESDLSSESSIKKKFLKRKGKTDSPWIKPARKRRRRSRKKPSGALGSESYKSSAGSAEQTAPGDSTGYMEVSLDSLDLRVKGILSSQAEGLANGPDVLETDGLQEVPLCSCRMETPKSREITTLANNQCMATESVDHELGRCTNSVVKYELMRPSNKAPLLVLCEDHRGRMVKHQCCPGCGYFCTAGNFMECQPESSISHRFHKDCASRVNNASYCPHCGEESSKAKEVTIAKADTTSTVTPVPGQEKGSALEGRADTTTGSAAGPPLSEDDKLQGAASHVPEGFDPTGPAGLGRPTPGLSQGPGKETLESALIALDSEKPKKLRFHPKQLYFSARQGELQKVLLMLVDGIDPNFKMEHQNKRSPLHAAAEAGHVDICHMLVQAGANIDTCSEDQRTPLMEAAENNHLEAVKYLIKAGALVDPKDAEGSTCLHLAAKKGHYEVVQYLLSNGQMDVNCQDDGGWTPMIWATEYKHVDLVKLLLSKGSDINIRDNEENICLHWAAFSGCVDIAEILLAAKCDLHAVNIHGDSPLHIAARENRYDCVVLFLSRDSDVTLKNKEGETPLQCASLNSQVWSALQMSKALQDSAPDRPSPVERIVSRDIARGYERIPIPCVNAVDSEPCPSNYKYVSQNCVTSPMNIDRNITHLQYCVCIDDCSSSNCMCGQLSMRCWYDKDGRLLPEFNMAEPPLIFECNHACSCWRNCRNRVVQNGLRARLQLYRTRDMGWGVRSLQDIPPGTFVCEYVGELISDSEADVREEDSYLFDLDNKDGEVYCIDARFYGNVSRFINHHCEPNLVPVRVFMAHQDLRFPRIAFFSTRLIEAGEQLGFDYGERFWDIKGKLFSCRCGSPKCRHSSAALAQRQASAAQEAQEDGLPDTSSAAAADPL
Briefly: Induction of wild type recombinant human histone lysine methyltransferase GLP (951 to 1235 residues) protein unfolding at 100 uM by circular dichroism analysis. (CD spectra are sensitive to the conformation of chiral molecules.)

Assay [2] has as its target T2, Histone-lysine N-methyltransferase EHMT2 (Homo sapiens) (UniProt Q96KQ7).
T2 sequence (whole entry): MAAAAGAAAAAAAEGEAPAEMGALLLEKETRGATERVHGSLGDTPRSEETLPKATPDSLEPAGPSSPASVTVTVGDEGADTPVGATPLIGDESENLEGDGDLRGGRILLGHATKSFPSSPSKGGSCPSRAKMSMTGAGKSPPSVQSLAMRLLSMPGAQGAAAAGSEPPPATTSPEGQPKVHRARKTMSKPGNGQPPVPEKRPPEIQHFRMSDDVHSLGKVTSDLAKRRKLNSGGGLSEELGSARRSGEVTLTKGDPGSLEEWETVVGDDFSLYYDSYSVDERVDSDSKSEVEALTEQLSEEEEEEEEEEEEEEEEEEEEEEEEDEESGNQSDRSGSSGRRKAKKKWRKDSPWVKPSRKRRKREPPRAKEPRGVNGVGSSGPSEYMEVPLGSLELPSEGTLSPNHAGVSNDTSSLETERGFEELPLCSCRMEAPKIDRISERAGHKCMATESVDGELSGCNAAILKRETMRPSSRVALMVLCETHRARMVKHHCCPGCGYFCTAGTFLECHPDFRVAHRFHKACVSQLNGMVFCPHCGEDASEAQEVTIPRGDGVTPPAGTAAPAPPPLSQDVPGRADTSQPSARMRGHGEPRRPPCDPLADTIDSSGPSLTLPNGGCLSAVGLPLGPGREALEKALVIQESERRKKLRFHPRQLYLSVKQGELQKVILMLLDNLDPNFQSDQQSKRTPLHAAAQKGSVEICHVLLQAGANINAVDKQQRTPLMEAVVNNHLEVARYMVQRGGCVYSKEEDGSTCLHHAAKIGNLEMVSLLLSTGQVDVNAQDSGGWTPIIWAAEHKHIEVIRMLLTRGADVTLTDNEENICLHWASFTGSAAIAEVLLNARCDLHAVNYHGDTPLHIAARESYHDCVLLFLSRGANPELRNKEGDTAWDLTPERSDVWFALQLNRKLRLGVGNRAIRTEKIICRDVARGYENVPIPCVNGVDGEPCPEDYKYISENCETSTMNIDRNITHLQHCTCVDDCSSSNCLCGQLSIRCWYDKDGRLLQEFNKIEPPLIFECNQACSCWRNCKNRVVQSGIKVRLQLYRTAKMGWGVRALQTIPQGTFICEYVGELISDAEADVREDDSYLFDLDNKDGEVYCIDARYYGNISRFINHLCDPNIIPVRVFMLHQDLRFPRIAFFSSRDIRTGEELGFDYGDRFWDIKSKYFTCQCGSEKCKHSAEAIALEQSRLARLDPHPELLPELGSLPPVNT
Briefly: Inhibition of wild type recombinant human histone lysine methyltransferase G9a (913 to 1193 residues) expressed in Escherichia coli Rosetta BL21 DE3 PlysS at 10 uM using ARTKQTARKSTGGKA as substrate preincubated for 5 mins followed by substrate/SAM addition measured after 60 mins by MALDI-TOF MS analysis.

For assay [3], the target named is T1, Histone-lysine N-methyltransferase EHMT1 (Homo sapiens). Briefly: Inhibition of wild type recombinant human histone lysine methyltransferase GLP (951 to 1235 residues) expressed in Escherichia coli Rosetta BL21 DE3 PlysS assessed as zinc ions ejection from Cys4-Zn finger at 100 uM by FluoZin-3 based fluorescence assay.
Assay [4] deals with T2, Histone-lysine N-methyltransferase EHMT2 (Homo sapiens). Briefly: Induction of wild type recombinant human histone lysine methyltransferase G9a (913 to 1193 residues) protein unfolding at 100 uM by circular dichroism analysis.
The target is the same in assay [5]. Briefly: Inhibition of wild type recombinant human histone lysine methyltransferase G9a (913 to 1193 residues) expressed in Escherichia coli Rosetta BL21 DE3 PlysS at 100 uM using ARTKQTARKSTGGKA as substrate preincubated for 5 mins followed by substrate/SAM addition measured after 60 mins by MALDI-TOF MS analysis.
Assay [6] has the same target. Briefly: Inhibition of wild type recombinant human histone lysine methyltransferase G9a (913 to 1193 residues) expressed in Escherichia coli Rosetta BL21 DE3 PlysS assessed as zinc ions ejection from Cys4-Zn finger at 100 uM by FluoZin-3 based fluorescence assay.

Molecules are shown by their SMILES. The source made the active and inactive calls. No cut-off for these calls is given here.

As for `CCN(CC)C(=S)SSC(=S)N(CC)CC`, the result in assay [1] and in assay [4] was Active. Further, the inhibition (in general, the percentage by which the read-out fell short of the control) in assay [2] is “inactive”. For the same compound, the inhibition entry in assay [3] and in assay [6] was “Active” each time. For the same compound, in assay [5], the inhibition was above 50%.

In the case of `O=c1c2ccccc2[se]n1-c1ccccc1` [EBSELEN], the outcome in assay [1] and in assay [4] was Active. In addition, the inhibition result in assay [2] is “inactive”. Also, the inhibition entry in assay [3] and in assay [6] was “Active” each time. The inhibition in assay [5] is above 50%.

The values above are taken from ChEMBL document CHEMBL4184305, “Inhibition of histone lysine methyltransferases G9a and GLP by ejection of structural Zn(II)” (Bioorg Med Chem Lett, 2018).
